{
  "source": "patent US20260317324A1",
  "about": "“BIFUNCTIONAL COMPOUNDS FOR DEGRADING BRAF VIA UBIQUITIN PROTEOSOME PATHWAY” (Nurix Therapeutics, Inc., priority 2023, published 2026)",
  "format_in_all_cases": "cell-based",
  "key": {"BRAF V600E": {"target": "T1, BRAF V600E (Homo sapiens, UniProt P15056, V600E)", "T1 construct": "endogenous C-terminal HiBiT fusion tag on BRAF V600E allele; endogenous in cells; host or cells: A375 clone 1F10 (CRISPR-Cas9 knock-in of the HiBiT tag; parental A375 from ATCC)", "T1 sequence (P15056 whole entry V600E, the tested form may be a part)": "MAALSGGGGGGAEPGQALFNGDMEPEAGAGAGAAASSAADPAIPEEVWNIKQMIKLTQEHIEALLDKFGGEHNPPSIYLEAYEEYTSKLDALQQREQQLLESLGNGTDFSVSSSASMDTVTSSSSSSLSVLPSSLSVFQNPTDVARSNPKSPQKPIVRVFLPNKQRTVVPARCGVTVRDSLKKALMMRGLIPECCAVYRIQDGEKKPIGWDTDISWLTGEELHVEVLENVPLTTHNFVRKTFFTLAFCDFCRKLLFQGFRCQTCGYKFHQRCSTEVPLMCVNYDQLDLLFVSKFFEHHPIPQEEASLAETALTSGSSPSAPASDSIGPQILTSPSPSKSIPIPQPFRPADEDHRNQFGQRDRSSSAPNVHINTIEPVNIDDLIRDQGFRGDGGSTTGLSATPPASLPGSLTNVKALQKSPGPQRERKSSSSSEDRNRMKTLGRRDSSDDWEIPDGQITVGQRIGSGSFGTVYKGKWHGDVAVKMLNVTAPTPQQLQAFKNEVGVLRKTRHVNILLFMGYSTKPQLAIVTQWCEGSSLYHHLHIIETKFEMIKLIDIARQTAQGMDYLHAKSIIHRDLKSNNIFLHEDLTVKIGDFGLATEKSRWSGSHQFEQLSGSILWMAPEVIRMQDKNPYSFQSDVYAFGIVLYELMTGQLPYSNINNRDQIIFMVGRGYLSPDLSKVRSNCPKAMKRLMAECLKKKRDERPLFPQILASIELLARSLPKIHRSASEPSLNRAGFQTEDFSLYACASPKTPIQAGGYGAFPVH", "test": "BRAF HiBiT degradation assay, C-terminal HiBiT-tagged BRAF V600E A375 cells (clone 1F10), Nano-Glo HiBiT Lytic assay", "conditions": "for Dmax: A-375", "procedure,_shortened": "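Endogenous BRAF V600E-HiBiT A375 (1F10), 10,000 cells/well, 24 h preculture; cpd 11-pt, 1 μM–0.01 nM half-log, n=2, 0.2% DMSO; HiBiT lytic detection 10 min RT; DC50 = fitted conc at Y=50; Obs. Dmax vs DMSO.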"}, "BRAF G469A": {"target": "T2, BRAF G469A (Homo sapiens, UniProt P15056, G469A)", "T2 construct": "Horizon Discovery (HCT-116 BRAF−/− cells); host or cells: HCT-116 BRAF−/− cells, clone 34, lentiviral transduction", "T2 sequence (P15056 whole entry G469A)": "as the sequence (P15056 whole entry V600E, the tested form may be a part) above, with G469A, E600V counted along it", "test": "BRAF HiBiT degradation assay, C-terminal HiBiT-tagged BRAF G469A overexpressed in HCT-116 BRAF−/− cells (clone 34), Nano-Glo HiBiT Lytic assay", "procedure,_shortened": "(§1)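 Luminescence from the lytic HiBiT reagent, read after 10 min at room temperature, measured tagged BRAF remaining in lentivirally transduced HCT-116 BRAF−/− cells. Compounds were tested from 1 μM to 0.01 nM in half-log steps at 0.2% DMSO. DC50 values were fitted at 50% remaining.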"}, "BRAF D594G": {"target": "T3, BRAF D594G (Homo sapiens, UniProt P15056, D594G)", "T3 construct": "Horizon Discovery (HCT-116 BRAF−/− cells); host or cells: HCT-116 BRAF−/− cells, clone 63, lentiviral transduction", "T3 sequence (P15056 whole entry D594G)": "as the sequence (P15056 whole entry V600E, the tested form may be a part) above, with D594G, E600V counted along it", "test": "BRAF HiBiT degradation assay, C-terminal HiBiT-tagged BRAF D594G overexpressed in HCT-116 BRAF−/− cells (clone 63), Nano-Glo HiBiT Lytic assay", "procedure,_shortened": "as §1"}, "BRAF G466V": {"target": "T4, BRAF G466V (Homo sapiens, UniProt P15056, G466V)", "T4 construct": "Horizon Discovery (HCT-116 BRAF−/− cells); host or cells: HCT-116 BRAF−/− cells, clone 8, lentiviral transduction", "T4 sequence (P15056 whole entry G466V)": "as the sequence (P15056 whole entry V600E, the tested form may be a part) above, with G466V, E600V counted along it", "test": "BRAF HiBiT degradation assay, C-terminal HiBiT-tagged BRAF G466V overexpressed in HCT-116 BRAF−/− cells (clone 8), Nano-Glo HiBiT Lytic assay", "procedure,_shortened": "as §1"}, "[1]": {"conditions": "A375 (BRAF V600E), DC50 at 50%: fitted conc. at Y=50"}, "[2]": {"conditions": "A375 (BRAF V600E), percentage protein degraded at maximal compound effect relative to DMSO"}, "[3]": {"conditions": "Class 2, BRAF G469A, DC50 at 50%: fitted conc. at Y=50"}, "[4]": {"conditions": "HCT-116, Class 2, BRAF G469A, percentage protein degraded at maximal compound effect relative to DMSO"}, "[5]": {"conditions": "BRAF D594G, DC50 at 50%: fitted conc. at Y=50"}, "[6]": {"conditions": "HCT-116, BRAF D594G, percentage protein degraded at maximal compound effect relative to DMSO"}, "[7]": {"conditions": "BRAF G466V, DC50 at 50%: fitted conc. at Y=50"}, "[8]": {"conditions": "HCT-116, BRAF G466V, percentage protein degraded at maximal compound effect relative to DMSO"}, "[9]": {"conditions": "A375 (BRAF V600E, Class 1), DC50 at 50% degradation"}, "[10]": {"conditions": "A375 (BRAF V600E, Class 1), observed Dmax, % protein degraded relative to DMSO control"}, "[11]": {"conditions": "BRAF G469A (Class 2), HCT-116 BRAF−/− cells, DC50 at 50% degradation"}, "[12]": {"conditions": "BRAF G469A (Class 2), HCT-116 BRAF−/− cells, observed Dmax relative to DMSO control"}, "[13]": {"conditions": "BRAF D594G (Class 3), HCT-116 BRAF−/− cells, DC50 at 50% degradation"}, "[14]": {"conditions": "BRAF D594G (Class 3), HCT-116 BRAF−/− cells, observed Dmax relative to DMSO control"}, "[15]": {"conditions": "BRAF G466V (Class 3), HCT-116 BRAF−/− cells, DC50 at 50% degradation"}, "[16]": {"conditions": "BRAF G466V (Class 3), HCT-116 BRAF−/− cells, observed Dmax relative to DMSO control"}},
  "data": [
    {"smiles": "CCCS(=O)(=O)Nc1cccc(-c2nc(CCC3CCN(C(=O)C4CCN(C(=O)C5CCN(c6ccc(C7CCC(=O)NC7=O)cn6)CC5)CC4)CC3)sc2-c2ccnc(N)n2)c1F", "note": "(racemic) [Compound 205, Rac-N-{3-[5-(2-aminopyrimidin-4-yl)-2-(2-{1-[1-(1-{5-[(3R)-2,6-dioxopiperidin-3-yl]pyridin-2-yl}piperidine-4-carbonyl)piperidine-4-carbonyl]piperidin-4-yl}ethyl)-1,3-thiazol-4-yl]-2-fluorophenyl}propane-1-sulfonamide]", "values": [
      {"measurement": "DC50", "setting": "BRAF V600E; [1]", "value": "< 10", "unit": "nM"},
      {"measurement": "Dmax", "setting": "BRAF V600E; [2]", "value": "> 70", "unit": "%"},
      {"measurement": "DC50", "setting": "BRAF G469A; [3]", "value": "> 500", "unit": "nM"},
      {"measurement": "Dmax", "setting": "BRAF G469A; [4]", "value": "30 to 70", "unit": "%"},
      {"measurement": "DC50", "setting": "BRAF D594G; [5]", "value": "> 500", "unit": "nM"},
      {"measurement": "Dmax", "setting": "BRAF D594G; [6]", "value": "30 to 70", "unit": "%"},
      {"measurement": "DC50", "setting": "BRAF G466V; [7]", "value": "> 500", "unit": "nM"},
      {"measurement": "Dmax", "setting": "BRAF G466V; [8]", "value": "30 to 70", "unit": "%"}
    ]},
    {"smiles": "CCCS(=O)(=O)Nc1cccc(-c2nc(C3CCC4(CC3)CCN(C[C@H]3CC[C@H](Oc5ccc(C6CCC(=O)NC6=O)cn5)CC3)CC4)sc2-c2ccnc(N)n2)c1F", "note": "(mixture of isomers) [Compound 257, N-{3-[5-(2-aminopyrimidin-4-yl)-2-(3-{[(1r,4r)-4-({5-[(3RS)-2,6-dioxopiperidin-3-yl]pyridin-2-yl}oxy)cyclohexyl]methyl}-3-azaspiro[5.5]undecan-9-yl)-1,3-thiazol-4-yl]-2-fluorophenyl}propane-1-sulfonamide]", "values": [
      {"measurement": "DC50", "setting": "BRAF V600E; [9]", "value": "10 to 50", "unit": "nM"},
      {"measurement": "Dmax", "setting": "BRAF V600E; [10]", "value": "> 70", "unit": "%"},
      {"measurement": "DC50", "setting": "BRAF G469A; [11]", "value": "> 500", "unit": "nM"},
      {"measurement": "Dmax", "setting": "BRAF G469A; [12]", "value": "< 30", "unit": "%"},
      {"measurement": "DC50", "setting": "BRAF D594G; [13]", "value": "> 500", "unit": "nM"},
      {"measurement": "Dmax", "setting": "BRAF D594G; [14]", "value": "< 30", "unit": "%"},
      {"measurement": "DC50", "setting": "BRAF G466V; [15]", "value": "> 500", "unit": "nM"},
      {"measurement": "Dmax", "setting": "BRAF G466V; [16]", "value": "< 30", "unit": "%"}
    ]},
    {"smiles": "O=C1CC[C@H](c2ccc(N3CCC(CN4CCN(c5ccc(-n6cc(-c7cc(Cl)cc(NS(=O)(=O)N8CC[C@@H](F)C8)c7F)c(-c7ccncc7)n6)cc5)CC4)CC3)cc2)C(=O)N1", "note": "[Compound 291, (3R)—N-{5-chloro-3-[1-(4-{4-[(1-{4-[(3R)-2,6-dioxopiperidin-3-yl]phenyl}piperidin-4-yl)methyl]piperazin-1-yl}phenyl)-3-(pyridin-4-yl)-1H-pyrazol-4-yl]-2-fluorophenyl}-3-fluoropyrrolidine-1-sulfonamide]", "values": [
      {"measurement": "DC50", "setting": "BRAF V600E; [9]", "value": "< 10", "unit": "nM"},
      {"measurement": "Dmax", "setting": "BRAF V600E; [10]", "value": "> 70", "unit": "%"},
      {"measurement": "DC50", "setting": "BRAF G469A; [11]", "value": "< 10", "unit": "nM"},
      {"measurement": "Dmax", "setting": "BRAF G469A; [12]", "value": "> 70", "unit": "%"},
      {"measurement": "DC50", "setting": "BRAF D594G; [13]", "value": "< 10", "unit": "nM"},
      {"measurement": "Dmax", "setting": "BRAF D594G; [14]", "value": "> 70", "unit": "%"},
      {"measurement": "DC50", "setting": "BRAF G466V; [15]", "value": "< 10", "unit": "nM"},
      {"measurement": "Dmax", "setting": "BRAF G466V; [16]", "value": "> 70", "unit": "%"}
    ]},
    {"smiles": "CCCS(=O)(=O)Nc1cccc(-c2nc(C(C)(C)C)sc2-c2ccnc(Nc3ccc(C4CCN(C(=O)C5CN(c6ccc(C7CCC(=O)NC7=O)cn6)C5)CC4)cc3)n2)c1F", "note": "(racemic) [Compound 159, Rac-N-(3-{2-tert-butyl-5-[2-({4-[1-(1-{5-[(3R)-2,6-dioxopiperidin-3-yl]pyridin-2-yl}azetidine-3-carbonyl)piperidin-4-yl]phenyl}amino)pyrimidin-4-yl]-1,3-thiazol-4-yl}-2-fluorophenyl)propane-1-sulfonamide]", "values": [
      {"measurement": "DC50", "setting": "BRAF V600E; [1]", "value": "< 10", "unit": "nM"},
      {"measurement": "Dmax", "setting": "BRAF V600E; [2]", "value": "> 70", "unit": "%"},
      {"measurement": "DC50", "setting": "BRAF G469A; [3]", "value": "> 500", "unit": "nM"},
      {"measurement": "Dmax", "setting": "BRAF G469A; [4]", "value": "< 30", "unit": "%"},
      {"measurement": "DC50", "setting": "BRAF D594G; [5]", "value": "> 500", "unit": "nM"},
      {"measurement": "Dmax", "setting": "BRAF D594G; [6]", "value": "30 to 70", "unit": "%"},
      {"measurement": "DC50", "setting": "BRAF G466V; [7]", "value": "> 500", "unit": "nM"},
      {"measurement": "Dmax", "setting": "BRAF G466V; [8]", "value": "< 30", "unit": "%"}
    ]},
    {"smiles": "CCCS(=O)(=O)Nc1cccc(-c2nc(C)sc2-c2ccnc(Nc3ccc(N4CCN(CC5CCN(c6ccc(C7CCC(=O)NC7=O)cn6)CC5)CC4)cn3)n2)c1F", "note": "(racemic) [Compound 62, Rac-N-[3-(5-{2-[(5-{4-[(1-{5-[(3R)-2,6-dioxopiperidin-3-yl]pyridin-2-yl}piperidin-4-yl)methyl]piperazin-1-yl}pyridin-2-yl)amino]pyrimidin-4-yl}-2-methyl-1,3-thiazol-4-yl)-2-fluorophenyl]propane-1-sulfonamide]", "values": [
      {"measurement": "DC50", "setting": "BRAF V600E; [1]", "value": "< 10", "unit": "nM"},
      {"measurement": "Dmax", "setting": "BRAF V600E; [2]", "value": "> 70", "unit": "%"},
      {"measurement": "DC50", "setting": "BRAF G469A; [3]", "value": "< 10", "unit": "nM"},
      {"measurement": "Dmax", "setting": "BRAF G469A; [4]", "value": "30 to 70", "unit": "%"},
      {"measurement": "DC50", "setting": "BRAF D594G; [5]", "value": "> 500", "unit": "nM"},
      {"measurement": "Dmax", "setting": "BRAF D594G; [6]", "value": "30 to 70", "unit": "%"},
      {"measurement": "DC50", "setting": "BRAF G466V; [7]", "value": "10 to 50", "unit": "nM"},
      {"measurement": "Dmax", "setting": "BRAF G466V; [8]", "value": "30 to 70", "unit": "%"}
    ]}
  ]
}
